From patent publication US7259155B2, “Phosphonic diester derivatives” (Otsuka Pharmaceutical Factory, Inc., priority 2004, dated 2007)

Target: T1, ACAT-1 (Homo sapiens, UniProt P35610)
T1 construct: To 2.6 ml of broken homogenate having a protein concentration of 2.5 mg/ml was added 0.65 ml of 5×DOC/PC; endogenous in cells; host or cells: SW-13 cells (human adrenal cortical adenocarcinoma); broken homogenate solubilised with deoxycholate/PC and reconstituted into cholesterol/PC vesicles
T1 sequence (P35610 1-550): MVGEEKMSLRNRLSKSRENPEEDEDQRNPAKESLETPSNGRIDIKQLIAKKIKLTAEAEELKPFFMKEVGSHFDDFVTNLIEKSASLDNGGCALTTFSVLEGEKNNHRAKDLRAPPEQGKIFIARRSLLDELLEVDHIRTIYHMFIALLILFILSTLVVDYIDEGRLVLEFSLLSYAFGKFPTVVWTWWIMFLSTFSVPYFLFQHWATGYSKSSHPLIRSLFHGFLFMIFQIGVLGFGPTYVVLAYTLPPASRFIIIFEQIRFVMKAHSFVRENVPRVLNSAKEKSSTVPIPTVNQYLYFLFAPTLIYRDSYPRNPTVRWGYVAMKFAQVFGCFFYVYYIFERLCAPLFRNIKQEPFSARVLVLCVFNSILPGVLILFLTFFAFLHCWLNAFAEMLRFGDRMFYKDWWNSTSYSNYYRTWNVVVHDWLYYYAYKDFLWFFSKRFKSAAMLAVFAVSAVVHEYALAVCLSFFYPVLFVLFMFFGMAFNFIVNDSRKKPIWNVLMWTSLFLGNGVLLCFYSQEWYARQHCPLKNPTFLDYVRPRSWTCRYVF
Experiment: ACAT-1 Inhibitory Action Test 1 (reconstituted vesicle assay, enzyme solution from SW-13 cell broken homogenate)
Format: biochemical
Conditions: test substance 1×10^−3 mol/l in DMSO, 2.5 μl added to 200 μl enzyme solution + 50 μl substrate solution; 37° C., 30 minutes; decrease in total cholesterol ester vs DMSO control
Method: SW-13 cells (derived from human adrenal cortical adenocarcinoma) were cultured on a culture plate until confluence in an L-15 culture medium containing 10% fetal bovine serum (FBS) in a carbon dioxide incubator.
Broken homogenates were collected according to a published procedure (hypotonic shock and scrapping method, Anal. Biochem., 116, 298–302 (1981)), subjected to protein quantitation (Bradford method), and stored at −80° C. till use.
Chol/PC vesicles (Chol/PC=3.9 mM/12.8 mM) were prepared according to a method described by Chang et al. (Chang, T. Y. et al., Anal. Biochem., 157, 323–330 (1986)). […]
With respect to the hexane phase in the glass test tube, the solvent was removed under a nitrogen gas stream. […] Using a bio-imaging analyzer (BAS-2000II, manufactured by Fuji Photo Film Co., Ltd.), the ^14C of the cholesterol ester fraction was quantified.
With respect to the hexane phase in the scintillation vial, ^3H was counted after adding a scintillation cocktail. Based on the amount of ^3H in the [^3H]-cholesteryl oleate-containing ethanol, the extraction efficiency was calculated. Based on the extraction efficiency, the amount of total cholesterol ester produced was calculated. In comparison with the control, decrease in the amount of the total cholesterol ester produced when a test substance was used was expressed as ACAT-1 enzyme inhibition (%).

diethyl 4-(7-chloro-3-N-(4-methyl -benzylideneamin)-4(3H)-quinazolinon-2-yl)benzylphosphonate [Example 1]
ACAT-1 enzyme inhibition (%): 75%
